Consider 4 molecules from DBAASP.

Values after ≈ are worked out from the molar mass of the structure shown.

Holding throughout (assay): ≥ marks a high value that may be exact or a test limit, other limits are often not marked, values filed in µg/mL are converted to µM
Assay [1] concerns Bacillus subtilis KCCM 11495.
Assay [2] has as its system Escherichia coli KCCM 11569.
The test system of assay [3] is Candida albicans ATCC 10231.
Assay [4] has as its system Candida glabrata ATCC 2001.
For assay [5], the system named is Candida krusei ATCC 6258.
Assay [6] concerns Candida parapsilosis ATCC 90018.
In assay [7] the test system is Candida tropicalis ATCC 750.
Assay [8] concerns Escherichia coli ATCC 25922.
Assay [9] has as its system Pseudomonas aeruginosa ATCC 27853.
In assay [10] the test system is Staphylococcus aureus ATCC 29213.
Assay [11] has as its system Fusarium graminearum.
The test system of assay [12] is Bacillus subtilis KCTC 3068.
Assay [13] relates to Escherichia coli KCTC 1682.
In assay [14] the test system is Pseudomonas aeruginosa H1001.
Assay [15] has as its system Pseudomonas aeruginosa KCTC 1637.
Assay [16] has as its system Salmonella typhimurium KCTC 1926.
The subject of assay [17] is Staphylococcus aureus KCTC 1621.
For assay [18], the system named is Staphylococcus epidermidis KCTC 1917.

For the molecule `CC(C)C[C@H](NC(=O)CNC(=O)[C@H](Cc1cnc[nH]1)NC(=O)[C@H](Cc1cnc[nH]1)NC(=O)[C@H](CC(C)C)NC(=O)[C@H](CC(C)C)NC(=O)[C@H](C)NC(=O)[C@H](CC(N)=O)NC(=O)[C@H](CC(C)C)NC(=O)[C@@H](N)Cc1c[nH]c2ccccc12)C(=O)N[C@@H](CC(N)=O)C(=O)N[C@@H](CS)C(=O)N[C@@H](C)C(=O)N[C@@H](CCCCN)C(=O)NCC(N)=O` [WLNALLHHGLNCAKG], the MIC in assay [1] and in assay [2] was no less than 38.9 µM in each case.
In the case of `CC[C@H](C)[C@H](NC(=O)CN)C(=O)N[C@@H](CC(C)C)C(=O)N[C@@H](CC(=O)O)C(=O)N[C@H](C(=O)N[C@@H](CCCCN)C(=O)N[C@@H](CC(N)=O)C(=O)N[C@@H](CCCCN)C(=O)N[C@H](C(=O)N[C@@H](CO)C(=O)N[C@@H](CC(N)=O)C(=O)N[C@@H](CC(C)C)C(=O)N[C@@H](Cc1ccccc1)C(=O)N[C@@H](CCCCN)C(=O)N[C@@H](CCCCN)C(=O)N[C@H](C(=O)N[C@@H](CCCCN)C(N)=O)[C@@H](C)CC)C(C)C)[C@@H](C)CC` [GILDIKNKVSNLFKKIK], the MIC (as a rule, the smallest concentration in the dilution series that meets the test's criterion for growth inhibition) was 250 µM (≈ 489 µg/mL) in assay [3]; no less than 500 µM in [4]; no less than 62.5 µM in assay [5]; no less than 500 µM in assay [6]; no less than 500 µM in assay [7]; greater than 130 µM in assay [8]. For the same molecule, the MIC in assay [9] and in assay [10] was greater than 130 µM throughout.
Turning to `CC(C)C[C@H](NC(=O)[C@@H](N)CCCCN)C(=O)N[C@@H](CS)C(=O)N[C@@H](CCC(=O)O)C(=O)N[C@@H](CCCCN)C(=O)N1CCC[C@H]1C(=O)N[C@@H](CO)C(=O)N[C@@H](CCCCN)C(=O)N[C@H](C(=O)N[C@@H](Cc1c[nH]c2ccccc12)C(=O)N[C@@H](Cc1ccccc1)C(=O)NCC(=O)N[C@@H](CC(N)=O)C(=O)N[C@@H](CS)C(=O)NCC(=O)N[C@@H](CC(N)=O)C(=O)N1CCC[C@H]1C(=O)N[C@@H](CCCN=C(N)N)C(=O)N[C@@H](Cc1cnc[nH]1)C(=O)N[C@@H](CS)C(=O)NCC(=O)O)[C@@H](C)O` [KLCEKPSKTWFGNCGNPRHCG], the MIC in [11] was no less than 32 µM.
On to `CC[C@H](C)[C@H](N)C(=O)N[C@@H](CC(C)C)C(=O)N[C@@H](CCCCN)C(=O)N[C@@H](Cc1c[nH]c2ccccc12)C(=O)N[C@@H](CCCCN)C(=O)N[C@@H](Cc1c[nH]c2ccccc12)C(=O)N1CCC[C@H]1C(=O)N[C@@H](Cc1c[nH]c2ccccc12)C(=O)N[C@@H](Cc1c[nH]c2ccccc12)C(=O)N1CCC[C@H]1C(=O)N[C@@H](Cc1c[nH]c2ccccc12)C(=O)N[C@@H](CCCN=C(N)N)C(=O)N[C@@H](CCCN=C(N)N)C(N)=O` [ILKWKWPWWPWRR], for which the MIC in assay [12] was determined as 2.58 µM (≈ 5 µg/mL); in [13] it was 5.16 µM (≈ 10 µg/mL); in assay [14] it was 5.16 µM (≈ 10 µg/mL); in [15] it was 10.3 µM (≈ 20 µg/mL); in assay [16] it was 5.16 µM (≈ 10 µg/mL); in [17], 2.58 µM (≈ 5 µg/mL). In assay [18], this molecule had a minimal inhibitory concentration (MIC) of 5.16 µM (≈ 10 µg/mL).
